Reference: patent US20050112251A1, “Preservation of liquids” (priority 2002, published 2005)
Each block holds one compound with its values, some of them ahead of it.

Columns and labels:
[1] = tested on: Penicillium italicum ATCC 36041; experiment: Time to spoilage of inoculated apple juice (visible growth, turbidity); type: cell-based; settings: room temperature
Experimental: (§1) All experiments were done with pure apple juice. The chosen concentrations of natamycin were sub-optimal (=below MIC).
(§2) All experiments were executed in duplo. • a. The effect of natamycin against the spore forming yeast Zygosaccharomyces bailii CBS 1097 was examined. Apple juice was inoculated with 10^4 Colony Forming Units (CFU)/ml of apple juice. Natamycin was added at a concentration of 1 ppm. • b. The effect of natamycin was tested against Penicillium italicum ATCC 36041. A spore suspension was prepared using well-known methods. The freshly prepared spore suspension was added to apple juice to a final concentration of 104 spores/ml of apple juice. Natamycin was added at a concentration of 5 ppm.
(§3) The samples were incubated at room temperature until fungal growth was visually observed (turbidity of the juice).
(§4) The pulsed electric fields treatments were applied according to well-known procedures for PEF-treatments of liquids. The apple juice to be treated was pumped through the PEF-treatment chamber with a flow rate of 60 litres per hour. The treatment temperature also called juice temperature before the PEF-treatment chamber was 17° C. The value of the electric field strength and the pulse length kept constant were 35 kV/cm and 2-μs, respectively. Three samples points were validated by variation of the pulse frequency, from 8.6 Hz (treatment A) to 5.7 Hz (treatment B) and 2.9 Hz (treatment C). With the above-mentioned parameters, the apple juice received 12, 8 or 4 pulses; those correspond to an energy density of 71, 37 and 12.5 J/ml of juice, respectively.
The chosen inoculation levels, natamycin concentrations and PEF treatments were as described in the examples 2 and 3. The natamycin can be added before or after the PEF treatment.
(§5) All samples were incubated at room temperature until fungal growth was visually observed (turbidity of the juice).

most food born fungi = settings: cited from earlier work
[2] = tested on: fungal spores which survived the PEF treatment; experiment: Inhibition of outgrowth of fungal spores, summary of agar diffusion MIC; type: cell-based; settings: summary of Table 1
Experimental: (§6) The minimal inhibition concentration (MIC) of these fungi or the minimal effective amount of the antifungal compound was determined using the agar diffusion method, which is well known in the art. Fungus spores were grown on agar plates containing different concentrations of natamycin. The concentration of natamycin on which no visible growth could be observed was considered as the minimal inhibition concentration for that particular fungus strain.

[3] = tested on: Stemphiliomma valparadisiacum 510.83; experiment: Natamycin MIC, agar diffusion method; type: cell-based; settings: isolated from apple juice
Experimental: as §6

[4] = tested on: Zygosporium mycophilum 396.49; experiment: Natamycin MIC, agar diffusion method; type: cell-based; settings: isolated from apple pulp
Experimental: as §6

[5] = tested on: Peacilomyces variotii 10274; experiment: Natamycin MIC, agar diffusion method; type: cell-based
Experimental: as §6

[6] = tested on: Talaromyces macrosporus 130.89; experiment: Natamycin MIC, agar diffusion method; type: cell-based; settings: isolated from pineapple juice
Experimental: as §6

[7] = tested on: Byssochlamys nivea 424.300; experiment: Natamycin MIC, agar diffusion method; type: cell-based; settings: Paecilomyces niveus, agar plates, no visible growth
Experimental: as §6

[8] = tested on: Mucor circinelloides 366.70; experiment: Natamycin MIC, agar diffusion method; type: cell-based; settings: isolated from strawberries
Experimental: as §6

[9] = tested on: Cladosporium tenuissimum 117.79; experiment: Natamycin MIC, agar diffusion method; type: cell-based; settings: isolated from fruit
Experimental: as §6

[10] = tested on: Aspergillus versicolor 245.62; experiment: Natamycin MIC, agar diffusion method; type: cell-based
Experimental: as §6

[11] = tested on: Zygosaccharomyces bailii CBS 1097; experiment: Time to spoilage of inoculated apple juice (visible growth, turbidity); type: cell-based; settings: room temperature
Experimental: as §1, §2, §3, §4
The chosen inoculation levels, natamycin concentrations and PEF treatments were as described in the examples 2 and 3.
as §5
Zygosaccharomyces bailii was inoculated in apple juice as described in example 2. Sorbate was added at a concentration of 800 ppm.
The PEF-treatment was used as described in the example 3. […] (treatment B).
The samples were incubated at room temperature.

[12] = tested on: Talaromyces macrosporus CBS 130.89 spores; experiment: Time to visible growth of heat-resistant fungus spores in apple juice; type: cell-based; settings: 104 spores/ml apple juice, incubation 25° C.
Experimental: This example describes the activity of natamycin against spores of a heat resistant fungal species, which is well known for causing spoilage problems in food industry. All experiments were executed on Talaromyces macrosporus CBS 130.89 spores suspended in pure apple juice. The chosen concentration of natamycin was sub-optimal. […] All experiment were executed in duplo.
Apple juice was inoculated with 104 spores/ml of apple juice. Natamycin was added at a concentration of 2.5 ppm. The spores suspended in the apple juice were submitted to a heat treatment at 80° C. for 5 minutes in order to stimulate their germination.
The samples were incubated at room temperature until fungal growth was visually observed (turbidity of the juice). Growth was observed after 4 days of incubation at 25° C.
This example describes the effect of a Pulsed Electric Field treatment against heat-resistant spores of Talaromyces macrosporus CBS 130.89. The pulsed electric fields treatments were applied as describe in the example 3. One sample point was validated for a frequency of 8.6 Hz (treatment A).
The chosen inoculation levels, natamycin concentrations and PEF treatments were as described in the examples 8 and 9. The natamycin can be added before or after the PEF treatment.
All samples were incubated at room temperature until fungal growth was visually observed (turbidity of the juice). […]

[13] = Stability of antifungal agent in apple juice during PEF treatment (HPLC); type: physicochemical; settings: for inactivation of the antifungal agent by the PEF treatment: general statement in the description
Experimental: as §4
This example illustrates the resistance of natamycin to PEF treatments. Natamycin was added to apple juice at a concentration of 5 ppm and submitted to pulsed electric field treatments as described in example 3. The natamycin content after the PEF-treatments was determined by HPLC.

[14] = cited from earlier work
[15] = natamycin 5 ppm + PEF-treatment C (2.9 Hz, 12.5 J/ml)

MIC [3]: < 5 µg/mL
MIC [4]: < 2.5 µg/mL
MIC [5]: < 2.5 µg/mL
MIC [6]: < 2.5 µg/mL
MIC [7]: < 2.5 µg/mL
MIC [8]: < 2.5 µg/mL
MIC [9]: < 2.5 µg/mL
MIC [10]: < 2.5 µg/mL
inactivation of the antifungal agent by the PEF treatment [13]: not inactivated
SMILES: C[C@@H]1C/C=C/C=C/C=C/C=C/[C@H](O[C@@H]2O[C@H](C)[C@@H](O)[C@H](N)[C@@H]2O)C[C@@H]2O[C@](O)(C[C@@H](O)C[C@H]3O[C@@H]3/C=C/C(=O)O1)C[C@H](O)[C@H]2C(=O)O [natamycin]
Time to spoilage, natamycin added after PEF-treatment [1, 15]: >30 days
Time to spoilage, natamycin added before PEF-treatment [1, 15]: >30 days
Time to spoilage ([1]; natamycin 5.0 ppm alone, 104 spores/ml): 4 days
MIC (Minimal Inhibition Concentration) (most food born fungi): less than 10 ppm
concentration that inhibits the outgrowth of fungal spores [2]: < 5 ppm
Time to spoilage, natamycin added before PEF-treatment ([11]; natamycin 1 ppm + PEF-treatment A (8.6 Hz, 71 J/ml)): >30 days
Time to spoilage, natamycin added after PEF-treatment ([11]; natamycin 1 ppm + PEF-treatment B (5.7 Hz, 37 J/ml)): >30 days
Time to spoilage ([11]; natamycin 1.0 ppm alone, 10^4 CFU/ml): 2 days
Time until growth observed ([12]; natamycin 2.5 ppm + PEF-treatment A): 9 days
Time until growth observed ([12]; natamycin 2.5 ppm alone, heat activation 80° C. 5 minutes): 4 days
natamycin content after the PEF-treatments (HPLC) ([13]; 5 ppm in apple juice, PEF treatments as in example 3): None of the analyzed samples showed a decrease
solubility in water [14]: 30 to 50 ppm

SMILES: CC=CC=CC(=O)O [sorbate]
Time without observed fungal growth ([11]; sorbate 800 ppm + PEF-treatment B): at least 30 days
Time until fungal growth visually observed ([11]; sorbate 800 ppm alone): 6 days
inactivation of the antifungal agent by the PEF treatment [13]: not inactivated
